This is an account of results in ChEMBL document CHEMBL1148698, “Chemotherapy of leishmaniasis. Part VII: synthesis and bioevaluation of substituted terpenyl pyrimidines” (2007).

As usually defined, the inhibition in vivo is how much of the control response was suppressed. Low values mean little suppression, high ones strong suppression.

SMILES strings stand for the structures. Calls of active or inactive are those of the source. The rule behind the calls is not given here.

One assay relates to Leishmania donovani. Put plainly: Antileishmanial activity against Leishmania donovani HOM/IN/80DD8 in hamster at 50 mg/kg, ip after 7 days.
Settings: not given
Take `CC1=C(/C=C/c2cc(NCc3ccccc3)nc(N)n2)C(C)(C)CCC1`: the result was inactive.

With `CC1=C(/C=C/c2cc(N3CCCCC3)nc(N)n2)C(C)(C)CCC1`, the result was inactive.

For the molecule `CC1=C(/C=C/c2cc(Nc3cccc(F)c3)nc(N)n2)C(C)(C)CCC1`, the outcome was inactive.

For the molecule `CC1=C(/C=C/c2cc(N3CCN(c4ccccc4)CC3)nc(N)n2)C(C)(C)CCC1`, the outcome was inactive.

For the molecule `CC1=C(/C=C/c2cc(NC3CCCCC3)nc(N)n2)C(C)(C)CCC1`, the outcome was inactive.

On to `CC1=C(/C=C/c2cc(N3CCOCC3)nc(N)n2)C(C)(C)CCC1`, for which the outcome was inactive.

For the molecule `CC1=C(/C=C/c2cc(N3CCNCC3)nc(N)n2)C(C)(C)CCC1`, the outcome was inactive.

In the case of `CC1=C(/C=C/c2cc(Nc3ccc(F)cc3)nc(N)n2)C(C)(C)CCC1`, the outcome was inactive.

Turning to `CC1=C(/C=C/c2cc(Nc3ccc(Cl)cc3)nc(N)n2)C(C)(C)CCC1`, the outcome was inactive.

`CC1=C(/C=C/c2cc(NN)nc(N)n2)C(C)(C)CCC1`: the result was inactive.

Regarding `COc1ccc(Nc2cc(/C=C/C3=C(C)CCCC3(C)C)nc(N)n2)cc1`, the result was inactive.

The same assay, now with this note: HOM/IN/80DD8, ip, 168 h.
On to `CSc1cc(/C=C/C2=C(C)CCCC2(C)C)nc(N)n1`, for which 50 mg/kg produced 66% inhibition in vivo.

In turn, `CC1=C(/C=C/c2cc(Nc3ccccc3)nc(N)n2)C(C)(C)CCC1` yielded an inhibition in vivo at 50 mg/kg of 31%.

`CCN(c1ccccc1)c1cc(/C=C/C2=C(C)CCCC2(C)C)nc(N)n1` showed an inhibition in vivo at 50 mg/kg of 40%.
